Data published in patent US4585795A, “Control agent for protecting timber against fungi employing a mixture of an organic carboxylic acid salt and quaternary ammonium salt” (priority 1982, dated 1986).
Converted amounts (≈) assume the structure as drawn. “And” between values parts separate entries of the source, which are not always exact repeats. Equal values may be shown once. “Also recorded” adds a separate entry of the source. Where a name gives a salt, the structure may show the parent alone. Read-outs that look alike come from different tables or passages of the source.

How the values were obtained:
Aureobasidium pullulans = assay: dish cultures, growth inhibition of A. pullulans (Czapek-Dox agar); assay type: cell-based; conditions: 360 h
Description: Laboratory experiments were carried out by making (1) dish cultures with Czapek-Dox agar at a temperature of 23° C. and (2) mini-board tests at a temperature of 23° C. and a humidity of 100%. The dish cultures had been inoculated with spores of the fungus Aureobasidium pullulans. This is a known fungus causing sapstain. In the mini-board tests, the inoculation was carried out using a spore suspension which contained a mixture of the spores of sapstain fungi. The sapstain fungi used were Aureobasidium pullulans, Sclerophoma entoxylina and Ceratocystis pilifera. […]
In dish cultures with A. pullulans fungus it was observed that growth was inhibited at, for example, the following concentrations of the control agents studied within a culture period of 15 days:
Using certain mixtures of these control agents, fungus growth could be inhibited at the following concentrations, for example: […]

[1] = test system: sapstain fungi (Aureobasidium pullulans, Sclerophoma entoxylina, Ceratocystis pilifera); assay: mini-board test on timber, sapstain; conditions: for Grading points, Sapstain: Example 2, 1.2% active ingredient in wetting solution, pH 8.4, fresh timber, 23° C., 1 month, 0-5 very good, 6-10 average, 11-15 poor, 16-20 very poor; for synergism with Na-2-ethylhexanoate (in words): examples 2, 5, 6 and 12
Description: (§1) Laboratory experiments were carried out by making (1) dish cultures with Czapek-Dox agar at a temperature of 23° C. and (2) mini-board tests at a temperature of 23° C. and a humidity of 100%. The dish cultures had been inoculated with spores of the fungus Aureobasidium pullulans. This is a known fungus causing sapstain. In the mini-board tests, the inoculation was carried out using a spore suspension which contained a mixture of the spores of sapstain fungi. The sapstain fungi used were Aureobasidium pullulans, Sclerophoma entoxylina and Ceratocystis pilifera.
(§2) In the mini-board tests it was studied whether the toxic effect is retained on the surface of timber. The dimensions of the mini-boards were 10×50×300 mm. They had been made from newly felled pine. The pieces were immersed for 20 s into the solutions studied and were then weighed and inoculated. The control pieces were immersed into pure water. Some of the test pieces were dried for 1 month at 23° C. at a humidity of 100% in dishes covered with a plastic sheet, whereafter the sapstain and the mildew growth in them were assessed visually.
(§3) The control agent composition presented in Test 4 of Example 3 was modified in such a way that part of the dodecylbenzyldimethylammonium chloride was replaced with technical dialkyldimethylammonium chloride which contained, bound with nitrogen, C8 -C18 alkyl groups as follows: […], C10 -9%, C12 -47%, C14 -18%, C16 -8% and C18 -10%.

surface mildew = assay: mini-board test on timber, surface mildew; conditions: Example 2; 1.2% active ingredient in wetting solution, pH 8.4, fresh timber, 23° C., 1 month; 0-5 very good, 6-10 average, 11-15 poor, 16-20 very poor
Description: as §1, §2, §3

[2] = known organic acids used as control agents; cited from earlier work
mold fungi [3] = assay: miniboard test, molds (surface mildew) (Examples 8-12); conditions: for Growth of fungi, Molds (score): Example 12, pH 10; for Growth of fungi, Freshly cut pine sapwood, Molds (score): average of ten replicates; for synergism with trimethylcoco ammonium chloride (in words): mold tests, Examples 8-11
Description: (§4) Cladosporium sphaerospermum
(§5) The other half of the miniboards was dipped into the control agent solutions for 20 seconds. […] The pH was 8.5-10.0. The board were allowed to drip and they were inoculated with the above mentioned spore suspensions of sapstain and mold fungi. The boards were stored at 100% relative humidity (R.H.) at 20° C. They were inspected and visually rated after 3 weeks incubation time.
(§6) 1--some traces of fungal growth
(§7) 2--several colonies of growing fungi
(§8) 3--25% of the surface discoloured
(§9) 4--50% of the surface discoloured
(§10) The miniboards were inspected and rated after 3 weeks incubation time at 20° C. and 100% R.H. Results are presented in tables 3 and 4 as the average score of ten replicate samples.
(§11) Results are presented in tables 5-7 as the average score of ten replicate samples.
(§12) The miniboards were treated as in foregoing examples but the treatment solution contained dioctyldimethylammonium chloride instead of trimethylcocoammonium chloride.

sapstain fungi [4] = assay: miniboard test, sapstain (Examples 8-12); conditions: for Growth of fungi, Sapstain (score): Example 12, pH 10
Description: as §1, §5, §6, §7, §8, §9, §10, §11, §12

[5] = test system: sapstain fungi (Aureobasidium pullulans, Sclerophoma entoxylina, Ceratocystis pilifera); assay: mini-board one-side immersion test, sapstain (DDC / 2-EHA-Na); conditions: 3 weeks, 23° C.
Description: as §1
[…] The immersion period was 20 s. The boards were allowed to drip, and they were inoculated with the above-mentioned spore suspension of sapstain fungi.

[6] = test system: mildew fungi (Cladosporium sphaerospermum, Penicillum Sp., Aspergillus amstelodami); assay: mini-board one-side immersion test, mildew growth (DDC / 2-EHA-Na); conditions: Example 6; dry matter of wetting solution 1.5%
Description: The concentration of the solution was 2.5%. The immersion period was 20 s. The boards were allowed to drip, and they were inoculated with the above-mentioned spore suspension of sapstain fungi.
The following experiment was carried out as in Example 5, but a suspension of spores of the mildew fungi listed below was used for the inoculations:
as §4

sapstain fungi [7] = assay: miniboard test, sapstain (Examples 8-12); conditions: TABLE 2; […] active ingredients, pH 8.5-10.0, 5 weeks, 20° C., 100% R.H.; average of ten replicates
mold fungi [8] = assay: miniboard test, molds (surface mildew) (Examples 8-12); conditions: TABLE 2; […] active ingredients, pH 8.5-10.0, 5 weeks, 20° C., 100% R.H.; average of ten replicates
[9] = pH 2.5, read-out: concentration at which growth was inhibited
[10] = pH 5, read-out: concentration at which growth was inhibited
[11] = pH 7, read-out: concentration at which growth was inhibited
[12] = pH 2.5, 15 days culture, single agents, read-out: concentration at which growth was inhibited
[13] = pH 5.0, 15 days culture, single agents, read-out: concentration at which growth was inhibited
[14] = pH 7.0, 15 days culture, single agents, read-out: concentration at which growth was inhibited
[15] = TABLES 3-4, […] active ingredients, pH 8.5-10.0, 3 weeks, 20° C., 100% R.H.
[16] = TABLES 3-4, […] active ingredients, pH 8.5-10.0, 3 weeks, 20° C., 100% R.H., average of ten replicates
[17] = Example 5, Test 1, dry matter of wetting solution 1.5%
[18] = Example 5, Test 2, dry matter of wetting solution […]
[19] = TABLES 5-7, […] active ingredients, pH 8.5-10.0, rated as in examples 9-10
[20] = TABLES 5-7, […] active ingredients, pH 8.5-10.0, rated as in examples 9-10, average of ten replicates
[21] = TABLE 1, […] active ingredients, pH 8.5-10, 3 weeks, brackets not explained

Molecule: CC(=O)Oc1ccccc1C(=O)O [Acetylsalicylic acid]
- MIC (Aureobasidium pullulans; [9]): 25 µg/mL (≈ 139 µM)
- MIC (Aureobasidium pullulans; [10]): > 100 µg/mL
- MIC (Aureobasidium pullulans; [11]): > 1000 µg/mL

Molecule: CCCCCCCCCCCC[N+](C)(C)Cc1ccccc1.[Cl-] [BAC, dodecylbenzyldimethylammonium chloride]
- Grading points, Sapstain [1]: 2 points and 1.5 points
- synergism with Na-2-ethylhexanoate (in words) [1]: proved
- Grading points, Surface mildew (surface mildew): 8.5 points and 4.5 points
- MIC (Aureobasidium pullulans; [9]): 50 µg/mL
- MIC (Aureobasidium pullulans; [10]): 10 µg/mL
- MIC (Aureobasidium pullulans; [11]): 2 µg/mL

Molecule: C/C=C/C=C/C(=O)O [Sorbic acid]
- pKa [2]: 4.77
- MIC (Aureobasidium pullulans; [12]): 50 µg/mL (≈ 446 µM)
- MIC (Aureobasidium pullulans; [13]): 100 µg/mL (≈ 892 µM)
- MIC (Aureobasidium pullulans; [14]): > 100 µg/mL

Molecule: CCCCCCCC[N+](C)(C)CCCCCCCC.[Cl-] [Dioctyldimethylammonium chloride, dioctyldimethylammonium chloride]
- synergism with Na-2-ethylhexanoate (in words) [1]: proved
- Growth of fungi, Molds (score) (mold fungi [3]; […] active ingredients): 1.5
- Growth of fungi, Sapstain (score) (sapstain fungi [4]; […] active ingredients): 1

Molecule: Na-isononanoate
- Growth of fungi, Freshly cut pine sapwood, Molds (score) (mold fungi [3]; [15]): 20
- synergism with trimethylcoco ammonium chloride (in words) (mold fungi [3]): quite obvious; also recorded: most obvious
- Growth of fungi, Freshly cut pine sapwood, Sapstain (score) (sapstain fungi [4]; [16]): 20

Molecule: CCCCCCCCCC(=O)O [Capric acid]
- Grading points, Sapstain [1]: 3.5 points
- Grading points, Surface mildew (surface mildew): 14 points
- MIC (Aureobasidium pullulans; [12]): 50 µg/mL (≈ 290 µM)
- MIC (Aureobasidium pullulans; [13]): 100 µg/mL (≈ 580 µM)
- MIC (Aureobasidium pullulans; [14]): > 100 µg/mL

Molecule: CCCCCCCCCCCC[N+](C)(C)C.[Cl-] [DMC, dodecyltrimethylammonium chloride]
- Grading points, Sapstain [1]: 1 points
- MIC (Aureobasidium pullulans; [9]): 15 µg/mL
- MIC (Aureobasidium pullulans; [10]): 15 µg/mL
- MIC (Aureobasidium pullulans; [11]): 4 µg/mL

Molecule: CCCCCCCCCC[N+](C)(C)CCCCCCCCCC.[Cl-] [DDC, didecyldimethylammonium chloride]
- synergism with Na-2-ethylhexanoate (in words) [1]: proved
- Grade points, Sapstain, Treated side [5, 17]: 12 points
- Grade points, Sapstain, Treated side [5, 18]: 5 points
- Grade points, Mildew growth, Treated side [6]: 11 points

Molecule: Na-iso-octanoate
- Growth of fungi, Freshly cut pine sapwood, Molds (score) (mold fungi [3]; [15]): 20
- synergism with trimethylcoco ammonium chloride (in words) (mold fungi [3]): not as clear
- Growth of fungi, Freshly cut pine sapwood, Sapstain (score) (sapstain fungi [4]; [16]): 20

Molecule: CCCCCCCC(=O)O [Na-caprylate]
- Growth of fungi, Freshly cut pine sapwood, Molds (score) (mold fungi [3]; [19]): 20
- Growth of fungi, Freshly cut pine sapwood, Sapstain (score) (sapstain fungi [4]; [20]): 10.5

Molecule: CCCCCCCCCC(=O)O [Na-caprinoate]
- Growth of fungi, Freshly cut pine sapwood, Molds (score) (mold fungi [3]; [19]): 20
- Growth of fungi, Freshly cut pine sapwood, Sapstain (score) (sapstain fungi [4]; [20]): 2.5

Molecule: CCCCCC(=O)O [Capronic acid]
- pKa [2]: 4.83

Molecule: CCCCC(CC)C(=O)O (stereo not shown) [2-ethyl hexanoic acid]
- pKa [2]: 4.81
- MIC (Aureobasidium pullulans; [9]): 50 µg/mL (≈ 347 µM)
- MIC (Aureobasidium pullulans; [10]): > 100 µg/mL
- MIC (Aureobasidium pullulans; [11]): > 1000 µg/mL

Molecule: CCCCCCCCCCCC[n+]1ccccc1 [DPC, dodecylpyridinium chloride]
- Grading points, Sapstain [1]: 3 points
- Grading points, Surface mildew (surface mildew): 16 points

Molecule: CCCCCCC(=O)O [Na-heptanoate]
- Growth of fungi, Freshly cut pine sapwood, Molds (score) (mold fungi [3]; [19]): 20
- Growth of fungi, Freshly cut pine sapwood, Sapstain (score) (sapstain fungi [4]; [20]): 7

Molecule: CCCCC(CC)C(=O)O (stereo not shown) [Na--2-ethylhexanoate, Na salt of 2-ethyl hexanoic acid]
- Growth of fungi, Freshly cut pine sapwood, Sapstain (score) (sapstain fungi [7]): 20
- Grade points, Sapstain, Treated side [5, 17]: 20 points
- Grade points, Sapstain, Treated side [5, 18]: 16 points
- Growth of fungi, Molds (score) (mold fungi [3]; […] active ingredients): 10
- Growth of fungi, Freshly cut pine sapwood, Molds (surface mildew) (score), value in square brackets (mold fungi [3]; [21]): 2
- control of mold growth (in words) (mold fungi [3]; […] a.i. solution): quite ineffective in controlling mold and stain fungi
- synergism with trimethylcoco ammonium chloride (in words) (mold fungi [3]): most obvious
- Grade points, Mildew growth, Treated side [6]: 20 points
- Growth of fungi, Freshly cut pine sapwood, Molds (surface mildew) (score) (mold fungi [8]): 20
- Growth of fungi, Sapstain (score) (sapstain fungi [4]; […] active ingredients): 10
- Growth of fungi, Freshly cut pine sapwood, Sapstain (score) (sapstain fungi [4]; TABLE 1, […] active ingredients, pH 8.5-10, 3 weeks, 20° C., 100% R.H., average of 5 replicates, value without brackets): 20
- Growth of fungi, Freshly cut pine sapwood, Sapstain (score), value in square brackets (sapstain fungi [4]; [21]): 2
- control of sapstain (in words) (sapstain fungi [4]; […] a.i. solution): quite ineffective in controlling mold and stain fungi

Molecule: O=C(O)c1ccccc1 [Benzoic acid]
- MIC (Aureobasidium pullulans; [9]): 50 µg/mL (≈ 409 µM)
- MIC (Aureobasidium pullulans; [10]): > 100 µg/mL
- MIC (Aureobasidium pullulans; [11]): > 100 µg/mL
